Test results reported in ChEMBL document CHEMBL1151086, “Sulfobetaine zwitterionic inhibitors of squalene synthase” (Bioorg Med Chem Lett, 1996).

Target: T1, Squalene synthase (Rattus norvegicus, UniProt Q02769)
T1 sequence (Q02769 whole entry): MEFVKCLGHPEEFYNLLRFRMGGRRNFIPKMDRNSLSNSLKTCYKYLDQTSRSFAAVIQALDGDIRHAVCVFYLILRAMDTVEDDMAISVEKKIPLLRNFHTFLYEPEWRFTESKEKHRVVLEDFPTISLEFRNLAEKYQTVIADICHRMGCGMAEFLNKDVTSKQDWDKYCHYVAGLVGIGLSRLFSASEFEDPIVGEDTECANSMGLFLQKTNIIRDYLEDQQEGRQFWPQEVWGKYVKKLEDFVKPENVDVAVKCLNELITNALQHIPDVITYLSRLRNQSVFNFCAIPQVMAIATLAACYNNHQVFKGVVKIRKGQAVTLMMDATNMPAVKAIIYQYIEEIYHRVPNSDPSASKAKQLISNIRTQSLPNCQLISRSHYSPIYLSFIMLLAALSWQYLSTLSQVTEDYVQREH
Assay: Inhibitory activity against rat hepatic squalene synthase; call rule not given here

Row | IC50 | Structure (SMILES)
1 | 60 µM | C[N+](C)(CCCCCCc1ccc(-c2ccccc2)cc1)CCCCS(=O)(=O)[O-]
2 | 6 µM | C[N+](C)(CCCCCCCCCCc1ccccc1)CCCCS(=O)(=O)[O-]
3 | 2 µM | C[N+](C)(CCCCCCCCCc1ccccc1)CCCCS(=O)(=O)[O-]
4 | 8 µM | C[N+](C)(CCCCCCCCc1ccccc1)CCCCS(=O)(=O)[O-]
5 | 100 µM | C[N+](C)(CCCCCCc1ccccc1)CCCCS(=O)(=O)[O-]

Further lines, the molecule ahead of its results:

Row | Structure (SMILES) | IC50
6 | CC(C)=CCC/C(C)=C/CC/C(C)=C/C[N+](C)(C)CCCCS(=O)(=O)[O-] | 15 µM
7 | C[N+](C)(CCCCc1ccc(-c2ccccc2)cc1)CCCCS(=O)(=O)[O-] | 25 µM
8 | C[N+](C)(CCCCCc1ccc(-c2ccccc2)cc1)CCCCS(=O)(=O)[O-] | 5 µM

Target: T1, Squalene synthase
Assay: Compound was evaluated for its inhibitory activity against rat hepatic squalene synthase at a concentration of 1000 uM; NI = No inhibition

Row | IC50 | Structure (SMILES)
9 | Not Active | C[N+](C)(CCCCS(=O)(=O)[O-])CCc1ccccc1
10 | Not Active | C[N+](C)(CCCCS(=O)(=O)[O-])Cc1ccccc1
